Laboratory results reported in PubChem BioAssay (NCI).
Several values for one entry are separate records, joined by “and”; a condition that tells them apart may be missing. Equal values may be shown once.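 In this assay, cells in 96-well plates receive the compound at five concentrations for 48 hours. Endpoints are linearly interpolated between the surrounding concentrations. TGI: total growth inhibition.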 *1 amine or outer side, *2 acyl side, *3 side chain or, on linkers, in order; H or OH if unused. Where a SMILES comes first, the peptide text is derived from it. Bridges are numbered along the chain shown (N, C = ends). Roman numbers before positions name the chains, in order. [ ]: non-standard residue; d: D form. Actinocin(1to9) = Cc1c2oc3c(C)ccc(C(=O)[*:2])c3nc-2c(C(=O)[*:1])c(N)c1=O; NMeV = CN[CH](C(=O)O)C(C)C; Sar = CNCC(=O)O

Legend:
Assay in all cases: inhibition of tumour cell growth, NCI panel, 48 h
[1] = tested on: HCT-15 colon
[2] = tested on: LOX IMVI melanoma
[3] = tested on: ACHN renal
[4] = tested on: MALME-3M melanoma
[5] = tested on: NCI-H23 lung
[6] = tested on: SK-OV-3 ovarian
[7] = tested on: T-47D breast
[8] = tested on: SW-620 colon
[9] = tested on: U251 CNS
[10] = tested on: NCI/ADR-RES ovarian
[11] = tested on: HOP-62 NSCLC
[12] = tested on: SK-MEL-5 melanoma
[13] = tested on: CAKI-1 renal
[14] = tested on: RPMI-8226 leukemia
[15] = tested on: 786-0 renal
[16] = tested on: HT29 colon
[17] = tested on: HCT-116 colon
[18] = tested on: MDA-N
[19] = tested on: SF-539 CNS
[20] = tested on: SR leukemia

SMILES	TGI [1]	TGI [2]	TGI [3]	TGI [4]	TGI [5]	TGI [6]	TGI [7]	TGI [8]	TGI [9]	TGI [10]	TGI [11]	TGI [12]	TGI [13]	TGI [14]	TGI [15]	TGI [16]	TGI [17]	TGI [18]	TGI [19]	TGI [20]
C=C1[C@@H](OC(C)=O)/C=C/C2C3C(=O)[C@@](C)(OC(C)=O)[C@H]([C@H](OC(C)=O)[C@]4(O)[C@@H](C)C(=O)O[C@H]4[C@H]1Cl)[C@@]23C (stereo partly drawn)	> 100 µM	> 100 µM	> 100 µM	> 100 µM	> 100 µM	> 100 µM	> 100 µM	> 100 µM	> 100 µM	> 100 µM	> 100 µM	> 100 µM	> 100 µM	> 100 µM	> 100 µM	> 100 µM	> 100 µM	> 100 µM	–	–
O=S(=O)(Cc1ccccc1)c1nnc(S(=O)(=O)c2ccc(Cl)cc2)s1	39.8 µM	–	36.4 µM	–	54.2 µM	47.8 µM	> 100 µM	64.1 µM	94.9 µM	77.9 µM	47.3 µM	33.6 µM	54 µM	61.9 µM	49.5 µM	60.7 µM	36 µM	33 µM	63.3 µM	–
C=C(C)C1Cc2c(cc3c(c2O)c(=O)c2ccccc2n3C)O1 (stereo not drawn)	9.93 µM	–	35.7 µM	3.41 µM	5.34 µM	13.5 µM	21 µM	5.68 µM	12.7 µM	8.19 µM	25.2 µM	8.02 µM	11.2 µM	9.72 µM	2.91 µM	7.32 µM	4.94 µM	12.2 µM	5.99 µM	4.95 µM
O=[N+]([O-])c1ccc(C2=NOC(c3ccccc3)N2C23CC4CC(CC(C4)C2)C3)cc1 (stereo not drawn)	> 100 µM	29.3 µM	> 100 µM	85.5 µM	> 100 µM	> 100 µM	> 100 µM	> 100 µM	> 100 µM	> 100 µM	80.2 µM	38.4 µM	3.23 µM	–	57.9 µM	44.6 µM	63.9 µM	58 µM	> 100 µM	–
C#CCNCC(=O)O	> 100 µM	–	> 100 µM	> 100 µM	> 100 µM	> 100 µM	> 100 µM	> 100 µM	> 100 µM	> 100 µM	> 100 µM	> 100 µM	> 100 µM	> 100 µM	> 100 µM	> 100 µM	> 100 µM	> 100 µM	> 100 µM	–
Cc1ccc(N=NC(=O)NNc2ccc(C)cc2Br)c(Br)c1	65.3 µM	34.5 µM	89.1 µM	36.4 µM	> 100 µM	–	> 100 µM	> 100 µM	34.9 µM	–	41.1 µM	33.9 µM	> 100 µM	66.5 µM	42.4 µM	> 100 µM	24.6 µM	48.3 µM	–	90.1 µM
O=C(Cn1c2ccc(Br)cc2c2nc3ccccc3nc21)NNC(=O)NC1CCCCC1	–	> 100 µM	> 100 µM	> 100 µM	> 100 µM	> 100 µM	> 100 µM	> 100 µM	> 100 µM	–	78.8 µM	> 100 µM	> 100 µM	> 100 µM	> 100 µM	–	> 100 µM	> 100 µM	> 100 µM	> 100 µM
CN(C)/C=N/c1cc(=O)n(C)c(=O)n1C	> 100 µM	> 100 µM	> 100 µM	> 100 µM	> 100 µM	> 100 µM	> 100 µM	> 100 µM	> 100 µM	> 100 µM	> 100 µM	> 100 µM	> 100 µM	> 100 µM	> 100 µM	> 100 µM	> 100 µM	> 100 µM	> 100 µM	–
COc1ccc(CC2NC(=O)C(NC(=O)c3c4nc5c(C(=O)NC6C(=O)NC(Cc7ccc(OC)cc7)C(=O)N7CCCC7C(=O)N(C)CC(=O)N(C)C(C(C)C)C(=O)OC6C)ccc(C)c5oc-4c(C)c(=O)c3N)C(C)OC(=O)C(C(C)C)N(C)C(=O)CN(C)C(=O)C3CCCN3C2=O)cc1 (stereo not drawn) (I: TY(Me)P[Sar][NMeV] / II: TY(Me)P[Sar][NMeV]; ester I:1-I:C, II:1-II:C; linker I:N-II:N via Actinocin(1to9); configuration not given here)	–	0.0144 µM	1.66 µM and 1.55 µM	0.0374 µM	0.126 µM	12.6 µM	0.0705 µM	–	–	–	0.0405 µM and 0.236 µM	0.0172 µM	0.306 µM	–	0.0253 µM	0.0174 µM and 0.0463 µM	–	0.0876 µM	0.0257 µM	< 0.001 µM
CC(=O)OC[C@@]1(C)[C@@H]2[C@@H]3[C@@]4(CO[C@]3(C)C(=O)[C@@]3(OC(C)=O)C[C@H](C)[C@H](OC(C)=O)[C@@H]3[C@H]4OC(C)=O)[C@H](OC(=O)c3ccccc3)C[C@@H]21	> 100 µM	> 100 µM	> 100 µM	> 100 µM	> 100 µM	> 100 µM	> 100 µM	> 100 µM	> 100 µM	> 100 µM	> 100 µM	> 100 µM	> 100 µM	> 100 µM	> 100 µM	> 100 µM	> 100 µM	> 100 µM	> 100 µM	–
Cc1ccc(S(=O)(=O)NC(=O)NC(CCCCN)C(=O)O)cc1 (stereo not drawn)	> 100 µM	> 100 µM	> 100 µM	> 100 µM	> 100 µM	> 100 µM	> 100 µM	> 100 µM	> 100 µM	> 100 µM	> 100 µM	> 100 µM	–	> 100 µM	> 100 µM	–	> 100 µM	> 100 µM	> 100 µM	> 100 µM
COc1cc2c(SCCN(C)C)nc3ccccc3c2c2ccccc12	3.31 µM	–	3.64 µM	3.99 µM	15 µM	25.6 µM	7.66 µM	3.64 µM	4.32 µM	16.5 µM	2.81 µM	3.08 µM	3.87 µM	4.23 µM	3.76 µM	> 100 µM	2.83 µM	4.87 µM	3.61 µM	4.42 µM
